Patent publication US6156700A, “3-(1,2-Benzisothiazol- and isoxazol-5-yl)-2,4(1H,3H)-pyrimidinedione or thione and 3-(1,2-benzisothiazol- and isoxazol-5-yl)-4(3H)-pyrimidinone or thione herbicidal agents” (American Cyanmid Company, priority 1998, dated 2000)

Key:
[1] = test system: Barnyardgrass, Echinochloa crus-galli; assay: Preemergence herbicidal evaluation, ECHCG; type: in vivo, (L.) Beau; conditions: 0.2500 kg/ha
From the text: (§1) Results of herbicide evaluation are expressed on a rating scale (0-9). The scale is based upon a visual observation of plant stand, vigor, malformation, size, chlorosis and overall plant appearance as compared with a control.
(§2) The preemergence herbicidal activity of the test compounds of the present invention is exemplified by the following tests in which the seeds of a variety of monocotyledonous and dicotyledonous plants are separately mixed with potting soil and planted on top of approximately one inch of soil in separate pint cups. After planting, the cups are sprayed with the selected aqueous acetone solution containing test compound in sufficient quantity to provide the equivalent of about 0.0156 to 0.500 kg per hectare of test compound per cup. The treated cups are then placed on greenhouse benches, watered and cared for in accordance with conventional greenhouse procedures. From four to five weeks after treatment, the tests are terminated and each cup is examined and rated according to the rating system provided in Example 185.
(§3) The compounds evaluated are reported by compound number given in Example 185.

[2] = test system: Galium, Galium aparine; assay: Postemergence herbicidal evaluation, GALAP; type: in vivo
Procedure, shortened: (§4)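 Roughly two-week-old seedlings sprayed with compound dispersed in 50/50 acetone/water plus 0.5% TWEEN 20, delivering about 0.0157 to 0.500 kg active per hectare through a nozzle at 40 psi. Kept in greenhouse; visually rated 4–5 weeks after treatment on a 0–9 scale (stand, vigor, malformation, size, chlorosis) versus control, replicate tests averaged.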

[3] = test system: MOOVA Monochoria; assay: Preemergence weed control, flooded paddy (Table III); type: in vivo, Monochoria vaginalis; design: scale not given here
Experimental: (§5) Preemergence herbicidal activity under flooded paddy conditions is determined as follows: plant seeds or propagating organs are planted in the top 0.5 cm of silt loam soil in 32 oz. plastic containers with a diameter of 10.5 cm and no drainage holes. Water is added to these containers and maintained at 1.5 to 3 cm above the soil surface for the duration of the experiment. The test compounds are applied as aqueous/acetone mixtures 50/50 v/v pipetted directly into the flood water to give the equivalent of about 0.0313 to 0.500 kg/ha of active ingredient. The treated containers are placed on greenhouse benches and cared for in accordance with conventional greenhouse procedures. Three to four weeks after treatment, the test is terminated and each container is examined and herbicidal effect rated according to the rating system provided in Example 185. The compounds evaluated are reported by compound number given in Example 185.

[4] = test system: Velvetleaf, Abutilon theophrasti; assay: Preemergence herbicidal evaluation, ABUTH; type: in vivo, Medic.; conditions: 0.2500 kg/ha
From the text: as §1, §2, §3

[5] = test system: CYPIR Rice Flatsedge; assay: Preemergence weed control, flooded paddy (Table III); type: in vivo, Cyperus iria; design: scale not given here
Experimental: as §5

[6] = test system: Sicklepod, Cassia obtusifolia; assay: Postemergence herbicidal evaluation, CASOB; type: in vivo, L.
Procedure, shortened: as §4

[7] = test system: Wheat, Winter, cv Riband, Triticum aestivum; assay: Preemergence herbicidal evaluation, TRZAWR; type: in vivo; conditions: 0.2500 kg/ha
From the text: as §1, §2, §3

[8] = test system: Rice, Tebonnet, Oryza sativa; assay: Postemergence herbicidal evaluation, ORYSAT; type: in vivo, (L.) Tebonnet
Procedure, shortened: as §4

[9] = test system: Corn, Field, Zea mays; assay: Postemergence herbicidal evaluation, ZEAMX; type: in vivo, L.
Procedure, shortened: as §4

[10] = test system: Foxtail, Green, Setaria viridis; assay: Preemergence herbicidal evaluation, SETVI; type: in vivo, (L.) Beau; conditions: 0.2500 kg/ha
From the text: as §1, §2, §3

[11] = test system: Rice, Tebonnet, Oryza sativa; assay: Preemergence herbicidal evaluation, ORYSAT; type: in vivo, (L.) Tebonnet; conditions: 0.2500 kg/ha
From the text: as §1, §2, §3

[12] = test system: Barnyardgrass, Echinochloa crus-galli; assay: Postemergence herbicidal evaluation, ECHCG; type: in vivo, (L.) Beau
Procedure, shortened: as §4

[13] = test system: CYPIR Rice Flatsedge; assay: Postemergence weed control, flooded paddy (Table IV); type: in vivo, Cyperus iria; design: scale not given here
From the text: (§6) Plastic containers containing weeds which are 3 to 5 cm tall and rice seedlings at the 1.5 to 2.5 leaf stage are flooded with water. The water is maintained at 1.5 to 3 cm above the soil surface for the duration of the experiment. Test compounds are applied as aqueous/acetone mixtures 50/50 v/v directly into the flood water to provide the equivalent of about 0.0313 to 0.500 kg/ha of active ingredient. The treated containers are placed on greenhouse benches and cared for in accordance with conventional greenhouse procedures. Three to four weeks after treatment, the test is terminated and each container is examined and herbicidal effect rated according to the rating system provided in Example 185. The compounds evaluated are reported by compound number given in Example 185.

[14] = test system: ORYSAT Rice, Tebonnet; assay: Rice tolerance, flooded paddy (Table IV); type: in vivo, Oryza sativa; design: scale not given here; conditions: crop tolerance
From the text: as §6

[15] = test system: Corn, Field, Zea mays; assay: Preemergence herbicidal evaluation, ZEAMX; type: in vivo, L.; conditions: 0.2500 kg/ha
From the text: as §1, §2, §3

[16] = test system: Ragweed, Common, Ambrosia artemisifolia; assay: Preemergence herbicidal evaluation, AMBEL; type: in vivo, L.; conditions: 0.2500 kg/ha
From the text: as §1, §2, §3

[17] = test system: ECHORC Watergrass (Calif.); assay: Preemergence weed control, flooded paddy (Table III); type: in vivo, Echinochloa oryzoides; design: scale not given here
Experimental: as §5

[18] = test system: Foxtail, Green, Setaria viridis; assay: Postemergence herbicidal evaluation, SETVI; type: in vivo, (L.) Beau
Procedure, shortened: as §4

[19] = test system: ECHORC Watergrass (Calif.); assay: Postemergence weed control, flooded paddy (Table IV); type: in vivo, Echinochloa oryzoides; design: scale not given here
From the text: as §6

[20] = test system: Ragweed, Common, Ambrosia artemisifolia; assay: Postemergence herbicidal evaluation, AMBEL; type: in vivo, L.
Procedure, shortened: as §4

[21] = test system: Wheat, Winter, cv Riband, Triticum aestivum; assay: Postemergence herbicidal evaluation, TRZAWR; type: in vivo
Procedure, shortened: as §4

`COC(=O)COc1ccc(C)cc1-c1nsc2ccc(-n3c(=O)cc(C(F)(F)F)n(C)c3=O)cc12` [Compound 2, Methyl {{2-{5-[3,6-dihydro-3-methyl-4-(trifluoromethyl) -2,6-dioxo-1(2H)-pyrimidinyl]-1,2-benzisothiazol-3-yl]-p-tolyl}oxy}acetate] was tested, and the “herbicide rating (0-9)” value [1] was 8.3, the “herbicide rating (0-9)” value ([2]; 0.0630 kg/ha) was 9.0 and the “herbicide rating (0-9)” value ([2]; 0.2500 kg/ha) was 9.0. It also gave a herbicidal effect rating ([3]; 0.0313 kg/ha) of 7.0, a herbicidal effect rating ([3]; 0.0625 kg/ha) of 9.0 and a herbicidal effect rating ([3]; 0.1250 kg/ha) of 9.0. The herbicidal effect rating ([3]; 0.2500 kg/ha) was 9.0, the herbicidal effect rating ([3]; 0.5000 kg/ha) was 9.0 and the “herbicide rating (0-9)” value [4] was 9.0. It also gave a herbicidal effect rating ([5]; 0.0313 kg/ha) of 8.0, a herbicidal effect rating ([5]; 0.0625 kg/ha) of 9.0 and a herbicidal effect rating ([5]; 0.1250 kg/ha) of 9.0. The herbicidal effect rating ([5]; 0.2500 kg/ha) was 9.0, the herbicidal effect rating ([5]; 0.5000 kg/ha) was 9.0 and the “herbicide rating (0-9)” value ([6]; 0.0630 kg/ha) was 6.5. The “herbicide rating (0-9)” value ([6]; 0.2500 kg/ha) was 9.0, the “herbicide rating (0-9)” value [7] was 4.0 and the “herbicide rating (0-9)” value ([8]; 0.0630 kg/ha) was 7.8. For the same compound, the “herbicide rating (0-9)” value ([8]; 0.2500 kg/ha) was 9.0, the “herbicide rating (0-9)” value ([9]; 0.0630 kg/ha) was 8.0 and the “herbicide rating (0-9)” value ([9]; 0.2500 kg/ha) was 7.5. The “herbicide rating (0-9)” value [10] was 9.0, the “herbicide rating (0-9)” value [11] was 7.7 and the “herbicide rating (0-9)” value ([12]; 0.0630 kg/ha) was 9.0. The “herbicide rating (0-9)” value ([12]; 0.2500 kg/ha) was 9.0, the herbicidal effect rating ([13]; 0.1250 kg/ha) was 9.0 and the herbicidal effect rating ([13]; 0.2500 kg/ha) was 9.0. The herbicidal effect rating ([13]; 0.5000 kg/ha) was 9.0, the herbicidal effect rating ([14]; 0.1250 kg/ha) was 3.0 and the herbicidal effect rating ([14]; 0.2500 kg/ha) was 7.0. The herbicidal effect rating ([14]; 0.5000 kg/ha) was 8.0, the “herbicide rating (0-9)” value [15] was 5.6 and the “herbicide rating (0-9)” value [16] was 9.0. It also gave a herbicidal effect rating ([17]; 0.0313 kg/ha) of 9.0, a herbicidal effect rating ([17]; 0.0625 kg/ha) of 9.0 and a herbicidal effect rating ([17]; 0.1250 kg/ha) of 9.0. For the same compound, the herbicidal effect rating ([17]; 0.2500 kg/ha) was 9.0, the herbicidal effect rating ([17]; 0.5000 kg/ha) was 9.0 and the “herbicide rating (0-9)” value ([18]; 0.0630 kg/ha) was 9.0. For the same compound, the “herbicide rating (0-9)” value ([18]; 0.2500 kg/ha) was 9.0, the herbicidal effect rating ([19]; 0.1250 kg/ha) was 7.0 and the herbicidal effect rating ([19]; 0.2500 kg/ha) was 9.0. The herbicidal effect rating ([19]; 0.5000 kg/ha) was 9.0, the “herbicide rating (0-9)” value ([20]; 0.0630 kg/ha) was 9.0 and the “herbicide rating (0-9)” value ([20]; 0.2500 kg/ha) was 9.0. The “herbicide rating (0-9)” value ([21]; 0.0630 kg/ha) was 7.2 and the “herbicide rating (0-9)” value ([21]; 0.2500 kg/ha) was 9.0.

`COC(=O)C(C)Oc1ccc(C)cc1-c1nsc2ccc(-n3c(=O)cc(C(F)(F)F)n(C)c3=O)cc12` (stereo not drawn) [Compound 3] was tested, and the “herbicide rating (0-9)” value [1] was 8.3, the “herbicide rating (0-9)” value ([2]; 0.0630 kg/ha) was 9.0 and the herbicidal effect rating ([3]; 0.0313 kg/ha) was 9.0. For the same compound, the herbicidal effect rating ([3]; 0.0625 kg/ha) was 9.0, the herbicidal effect rating ([3]; 0.1250 kg/ha) was 9.0 and the herbicidal effect rating ([3]; 0.2500 kg/ha) was 9.0. The herbicidal effect rating ([3]; 0.5000 kg/ha) was 9.0, the “herbicide rating (0-9)” value [4] was 9.0 and the herbicidal effect rating ([5]; 0.0313 kg/ha) was 9.0. The herbicidal effect rating ([5]; 0.0625 kg/ha) was 9.0, the herbicidal effect rating ([5]; 0.1250 kg/ha) was 9.0 and the herbicidal effect rating ([5]; 0.2500 kg/ha) was 9.0. For the same compound, the herbicidal effect rating ([5]; 0.5000 kg/ha) was 9.0, the “herbicide rating (0-9)” value ([6]; 0.0630 kg/ha) was 9.0 and the “herbicide rating (0-9)” value ([6]; 0.2500 kg/ha) was 9.0. For the same compound, the “herbicide rating (0-9)” value [7] was 6.3, the “herbicide rating (0-9)” value ([8]; 0.0630 kg/ha) was 7.2 and the “herbicide rating (0-9)” value ([8]; 0.2500 kg/ha) was 9.0. The “herbicide rating (0-9)” value ([9]; 0.0630 kg/ha) was 8.3, the “herbicide rating (0-9)” value ([9]; 0.2500 kg/ha) was 9.0 and the “herbicide rating (0-9)” value [10] was 9.0. For the same compound, the “herbicide rating (0-9)” value [11] was 6.8, the “herbicide rating (0-9)” value ([12]; 0.0630 kg/ha) was 9.0 and the “herbicide rating (0-9)” value ([12]; 0.2500 kg/ha) was 9.0. For the same compound, the herbicidal effect rating ([13]; 0.1250 kg/ha) was 9.0, the herbicidal effect rating ([13]; 0.2500 kg/ha) was 9.0 and the herbicidal effect rating ([13]; 0.5000 kg/ha) was 9.0. It also gave a herbicidal effect rating ([14]; 0.1250 kg/ha) of 3.0, a herbicidal effect rating ([14]; 0.2500 kg/ha) of 3.0 and a herbicidal effect rating ([14]; 0.5000 kg/ha) of 3.0. For the same compound, the “herbicide rating (0-9)” value [15] was 7.3, the “herbicide rating (0-9)” value [16] was 9.0 and the herbicidal effect rating ([17]; 0.0313 kg/ha) was 9.0. The herbicidal effect rating ([17]; 0.0625 kg/ha) was 9.0, the herbicidal effect rating ([17]; 0.1250 kg/ha) was 9.0 and the herbicidal effect rating ([17]; 0.2500 kg/ha) was 9.0. The herbicidal effect rating ([17]; 0.5000 kg/ha) was 9.0, the “herbicide rating (0-9)” value ([18]; 0.0630 kg/ha) was 9.0 and the “herbicide rating (0-9)” value ([18]; 0.2500 kg/ha) was 9.0. It also gave a herbicidal effect rating ([19]; 0.1250 kg/ha) of 0.0, a herbicidal effect rating ([19]; 0.2500 kg/ha) of 2.0 and a herbicidal effect rating ([19]; 0.5000 kg/ha) of 4.0. For the same compound, the “herbicide rating (0-9)” value ([20]; 0.0630 kg/ha) was 9.0, the “herbicide rating (0-9)” value ([20]; 0.2500 kg/ha) was 9.0 and the “herbicide rating (0-9)” value ([21]; 0.0630 kg/ha) was 8.8. For the same compound, the “herbicide rating (0-9)” value ([21]; 0.2500 kg/ha) was 8.0.
